The values below come from patent publication US11926640B2, “Prodrugs of glutamine analogs” (THE JOHNS HOPKINS UNIVERSITY, priority 2015, dated 2024).

The nature of data set [1]: in vitro metabolic stability in human plasma.
Data set [2] is described as follows: plasma and CSF pharmacokinetics of DON in swine after i.v. infusion. It is filed as in vivo, Göttingen×Yucutan miniature swine. The following applies: 60 min post-administration. As to the method:
Compound: Compound 47 was dissolved in a sterile saline containing 5% ethanol and 5% Tween 80 on the date of administration.
Swine: Swine studies were conducted under a protocol approved by the Johns Hopkins Animal Care and Use Committee. Adult, female Göttingen×Yucutan miniature swine (Massachusetts General Hospital, MA) were housed in Johns Hopkins University facilities accredited by the Association for Assessment and Accreditation of Laboratory Animal Care International in compliance with the Animal Welfare Act, Animal Welfare Regulations, and the Public Health Service Policy on the Humane Care and Use of Laboratory Animals. Animals were maintained on a 14-h light and 10-h dark schedule, provided ad libitum water and a commercial miniswine diet (Teklad, Madison, WI) with environmental enrichment (fruit/vegetables) twice daily.

A short description of data set [3]: plasma and CSF pharmacokinetics of DON in monkeys after i.v. DON or 14b. The following applies: Monkey, FIG. 58B. It is filed as in vivo, pigtail macaques. As to the method: Pharmacokinetic Studies in Non-human primates. All monkey studies were conducted according to protocol (#PR15M298) approved by the Animal Care and Use Committee at Johns Hopkins University. Two female pigtail monkeys (approximately 3.5 kg, non-drug naive) were adjacently housed in stainless steel cages on a social interaction rack (contains 4 cages, each 32.5″ wide×28″ deep×32″ high) maintaining temperature of 64-84° F., humidity of 30-70% with alternating 14-10 hour light/dark cycle as per the USDA Animal Welfare Act (9 CFR. Parts 1, 2, and 3). Food was provided daily in amounts appropriate for the size and age of the animals and RO purified water provided ad libitum through an in-cage lixit valve. Food enrichment was provided Monday through Friday. Prior to drug administration, macaques were sedated with ketamine given as an intramuscular injection prior to test article administration. […]
Bioanalysis of DON. […] The mean predicted relative standard deviation for back calculated concentrations of the standards and QC's for all analytes were within the range of 85 to 115%, except for the lowest concentration which was within the range of 80 to 120% with an overall accuracy and precision of 6.7% and 6.6%, respectively.
Pharmacokinetic Analysis. […] Area under the curve (AUC) was calculated by log-linear trapezoidal rule to the end of sample collection (AUClast). […]

Data set [4] is described as follows: in vitro metabolic stability in monkey plasma.
A short description of data set [5]: in vitro metabolic stability in mouse plasma.
The nature of data set [6]: in vitro metabolic stability in dog plasma. Particulars: 30 min and 60 min. It is filed as in vitro ADME. Here is the method:
Percentage remaining was calculated in the following manner.

Data set [7] in a line: in vitro metabolic stability in pig plasma. Particulars: 30 min and 60 min.

Molecules are shown by their SMILES. Entries after “also recorded” stand apart in the source; their conditions may differ.

For `CC(C)OC(=O)[C@H](CCC(=O)C=[N+]=[N-])NC(=O)OC(C)OC(=O)C(C)(C)C` (single isomer, unassigned) [Compound 14b, 1-Methylethyl 6-(1λ^5-diazynylidene)-N-({1-[(2,2-dimethylpropanoyl)oxy]ethoxy}carbonyl)-5-oxo-L-norleucinate], the “stability in human plasma (in words)” value in data set [1] (30 min and 60 min) is on record as “highly stable”. Moreover, the “PLASMA STABILITY Human” value in data set [1] (prodrug remaining within the 60 min incubation time, human plasma) came to 91%. In addition, the “CSF delivery of DON (in words)” value in data set [2] is “substantially higher amounts of DON to the CSF; also recorded: enhanced CSF delivery of DON”. Moreover, the figures for the “CSF:plasma ratio of DON (in words)” value in data set [2] and in data set [3] were “increased CSF-to-plasma ratios; also recorded: enhanced CSF:plasma ratio” and “enhanced CSF:plasma ratio”, respectively. Also, the “stability in monkey plasma (in words)” value in data set [4] (30 min and 60 min) is recorded as “highly stable”. Further, the “PLASMA STABILITY Monkey” value in data set [4] (prodrug remaining within the 60 min incubation time, monkey plasma) worked out at 61%. In addition, the “stability in mouse plasma (in words)” value in data set [5] (30 min and 60 min) is listed as “rapidly metabolized”. Besides, in data set [5] (prodrug remaining within the 60 min incubation time, mouse plasma), the “PLASMA STABILITY Mouse” value is on record as 0%. Moreover, the “stability in dog plasma (in words)” value in data set [6] was “highly stable”. The “stability in pig plasma (in words)” value in data set [7] is “highly stable”.
